Source: US20260226048A1, “MULTI-CYCLIC IRAK AND FLT3 INHIBITING COMPOUNDS AND USES THEREOF” (CHILDREN'S HOSPITAL MEDICAL CENTER, priority 2023, published 2026)
Where two headings read alike, the source gives them in different places.

Tests used:
IRAK1 = biological target: T1, IRAK1 (Homo sapiens, UniProt P51617); test: RBC HotSpot Kinase Assay, IRAK1; assay type: biochemical; details: isolated kinase enzyme, 33P-ATP, P81 filter-binding
T1 construct: purchased Reaction Biology (RBC HotSpot)
Method in brief: (§1)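 Reactions ran in 20 mM Hepes (pH 7.5) containing 10 mM MgCl2, 1 mM EGTA, 0.1 mM Na3VO4, 2 mM DTT, 0.02 mg/ml BSA, 0.01% Brij35 and 1% DMSO, plus required cofactors. Functional activity readout on the expressible enzyme form, sometimes C-terminally truncated or lacking receptor regulatory regions.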

[1] = system: NF-κB-inducible SEAP reporter in THP-1-Blue NF-κB cells; test: NF-kB SEAP reporter assay in THP-1-Blue NF-κB cells; assay type: cell-based; details: 24 hours
Method in brief: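 Cells (1×10^5/well) stimulated with Pam3CSK4 (1 ng/mL) or hIL1B (1 ng/mL), then after 10-20 min given 10-point 1:10 compound dilutions from 1 μM or 3 μM for 24 h at 37° C. Secreted SEAP in supernatant read with QUANTI-Blue (30-60 min, 37° C) at 620 nm.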

THP1 cells (FLT3 WT) = test: Combination drug screening with venetoclax in THP1 cells (Cell Titre Glo, 10 × 10); assay type: cell-based; details: for Excess HSA (sum excess HSA score, combination with venetoclax): 10 × 10 dataset, Cell Titre Glo at 48 hours, optimal of 4 dose combinations, negative = synergy; for Concentration needed to decrease the 312.5 nM Venetoclax response to <20%: Cell Titer Glo at 48 hours
Procedure: (§2) These assays were performed using the Cell Titre Glo assay, measured at 48 hours.
(§3) A smaller concentration indicates higher potency to synergize with Venetoclax.

[2] = system: MOLM14-D835Y cells (FLT3-ITD (D835Y) mutant); test: Combination drug screening with venetoclax in MOLM14 (D835Y) cells (Cell Titre Glo, 10 × 10); assay type: cell-based; parameters: Excess HSA (sum excess HSA score, combination with venetoclax): scale not given here; details: for Excess HSA (sum excess HSA score, combination with venetoclax): 10 × 10 dataset, Cell Titre Glo at 48 hours, optimal of 4 dose combinations, negative = synergy; for Concentration of a compound of the disclosure, or gilteritinib, needed to decrease the 62.5 nM Ven response to <10% in MOLM14(D835Y) cells: combination with 62.5 nM Venetoclax, Cell Titer Glo, 48 hours, response <10%
Procedure: as §2, §3

FLT3 = biological target: T2, FLT3 (Homo sapiens, UniProt P36888); test: RBC HotSpot Kinase Assay, FLT3; assay type: biochemical; parameters: purchased Reaction Biology (RBC HotSpot); details: isolated kinase enzyme, 33P-ATP, P81 filter-binding
T2 sequence (P36888 27-993): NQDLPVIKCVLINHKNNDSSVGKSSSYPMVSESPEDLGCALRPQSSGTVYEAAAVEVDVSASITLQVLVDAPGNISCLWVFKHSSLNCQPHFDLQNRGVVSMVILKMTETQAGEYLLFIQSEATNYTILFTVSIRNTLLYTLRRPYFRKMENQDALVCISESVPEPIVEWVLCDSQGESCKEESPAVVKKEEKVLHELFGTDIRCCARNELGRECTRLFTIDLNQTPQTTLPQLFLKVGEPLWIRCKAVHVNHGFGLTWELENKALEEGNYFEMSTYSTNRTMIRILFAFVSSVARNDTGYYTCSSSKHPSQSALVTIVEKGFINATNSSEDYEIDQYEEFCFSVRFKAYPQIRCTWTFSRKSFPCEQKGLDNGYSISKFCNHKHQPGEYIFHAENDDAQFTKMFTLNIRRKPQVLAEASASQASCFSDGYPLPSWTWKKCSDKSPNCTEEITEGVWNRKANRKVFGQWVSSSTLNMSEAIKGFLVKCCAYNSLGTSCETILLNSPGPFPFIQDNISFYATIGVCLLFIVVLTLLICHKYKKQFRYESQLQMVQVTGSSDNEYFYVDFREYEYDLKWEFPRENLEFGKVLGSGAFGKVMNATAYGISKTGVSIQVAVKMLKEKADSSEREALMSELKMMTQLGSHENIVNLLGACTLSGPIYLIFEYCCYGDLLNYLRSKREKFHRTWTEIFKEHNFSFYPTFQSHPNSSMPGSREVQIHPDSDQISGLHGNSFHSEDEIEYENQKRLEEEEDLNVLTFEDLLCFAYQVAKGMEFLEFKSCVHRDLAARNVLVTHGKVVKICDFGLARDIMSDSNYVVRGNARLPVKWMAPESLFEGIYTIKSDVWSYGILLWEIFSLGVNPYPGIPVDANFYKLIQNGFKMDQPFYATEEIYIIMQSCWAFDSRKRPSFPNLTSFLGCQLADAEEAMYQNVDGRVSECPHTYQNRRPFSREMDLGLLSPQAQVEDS
Method in brief: as §1

[3] = THP-1-Blue NF-κB cells stimulated with Pam3CSK4 (1 ng/mL), read-out: NF-κB Pam3SCK4 IC50
[4] = THP-1-Blue NF-κB cells stimulated with hIL1B (1 ng/mL), read-out: NF-κB IL1B IC50

T1 sequence (P51617 whole entry): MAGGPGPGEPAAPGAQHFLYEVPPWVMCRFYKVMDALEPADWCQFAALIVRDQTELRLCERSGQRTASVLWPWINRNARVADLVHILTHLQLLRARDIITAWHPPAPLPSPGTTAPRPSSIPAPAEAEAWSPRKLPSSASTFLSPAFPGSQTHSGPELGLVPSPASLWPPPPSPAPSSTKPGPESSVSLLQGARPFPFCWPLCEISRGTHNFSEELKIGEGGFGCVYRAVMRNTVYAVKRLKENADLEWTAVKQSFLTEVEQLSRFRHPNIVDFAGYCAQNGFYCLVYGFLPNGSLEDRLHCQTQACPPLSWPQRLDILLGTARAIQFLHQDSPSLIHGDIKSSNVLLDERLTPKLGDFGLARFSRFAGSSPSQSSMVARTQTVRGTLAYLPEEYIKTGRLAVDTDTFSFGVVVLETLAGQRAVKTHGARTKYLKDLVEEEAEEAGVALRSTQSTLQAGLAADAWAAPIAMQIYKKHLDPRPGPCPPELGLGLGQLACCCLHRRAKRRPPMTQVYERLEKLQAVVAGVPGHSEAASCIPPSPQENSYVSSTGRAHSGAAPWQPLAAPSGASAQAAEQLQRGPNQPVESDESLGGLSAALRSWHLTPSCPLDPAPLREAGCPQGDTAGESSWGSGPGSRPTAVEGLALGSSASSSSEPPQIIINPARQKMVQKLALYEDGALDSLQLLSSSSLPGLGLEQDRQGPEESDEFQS

SMILES | IC50 (IRAK1) [nM] | IC50 [1, 3] [nM] | IC50 [1, 4] [nM] | Excess HSA (sum excess HSA score, combination with venetoclax) (THP1 cells (FLT3 WT)) | Concentration needed to decrease the 312.5 nM Venetoclax response to <20% (THP1 cells (FLT3 WT)) [µM] | Excess HSA (sum excess HSA score, combination with venetoclax) [2] | Concentration of a compound of the disclosure, or gilteritinib, needed to decrease the 62.5 nM Ven response to <10% in MOLM14(D835Y) cells [2] [nM] | IC50 (FLT3) [nM]
COc1cc2ncc(-c3nc(N[C@H]4CNCC[C@@H]4F)ncc3F)n2nc1C1CC2(CCC2)C1 [Compound 60a, 5-fluoro-N-((3S,4S)-4-fluoropiperidin-3-yl)-4-(7-methoxy-6-(spiro[3.3]heptan-2-yl)imidazo[1,2-b]pyridazin-3-yl)pyrimidin-2-amine] | 4 | 156 | 200 | −1548 | 5 | −1497.3117 | 25 | < 0.5
COc1cc2ncc(-c3ccnc(N[C@H]4CNCC[C@@H]4F)n3)n2nc1C1CCC1 [Compound 79a, 4-(6-cyclobutyl-7-methoxyimidazo[1,2-b]pyridazin-3-yl)-N-((3S,4S)-4-fluoropiperidin-3-yl)pyrimidin-2-amine] | 33 | 340 | 271 | −994.9 | 5 | −1180 | 25 | < 0.5
COc1cc2ncc(-c3nc(N[C@H]4CNCC[C@@H]4F)ncc3F)n2nc1C1COC1 [Compound 92a, 5-fluoro-N-((3S,4S)-4-fluoropiperidin-3-yl)-4-(7-methoxy-6-(oxetan-3-yl)imidazo[1,2-b]pyridazin-3-yl)pyrimidin-2-amine] | 4 | 53 | 60 | −529.2 | 5 | – | 12.5 | < 0.5
CC(C)(O)c1cn2c(-c3nc(N[C@H]4CNCC[C@@H]4F)ncc3F)cnc2cn1 [Compound 100a, 2-(3-(5-fluoro-2-(((3S,4S)-4-fluoropiperidin-3-yl)amino)pyrimidin-4-yl)imidazo[1,2-a]pyrazin-6-yl)propan-2-ol] | 24 | 69 | 83 | −1080 | 10 | −1548 | 625 | 1
